# Experimental data taken from patent US5298492A, “Diamino acid derivatives as antihypertensives” (Schering Corporation, priority 1992, dated 1994).
# What was measured:
# [1] = target: NEP (neutral endopeptidase) (Homo sapiens, UniProt P08473); test: NEP inhibition IC50; format: biochemical
# [2] = target: ACE (angiotensin converting enzyme) (Homo sapiens, UniProt P12821); test: ACE inhibition IC50; format: biochemical
# Sequence of ACE (angiotensin converting enzyme) (P12821 30-1306, species assumed): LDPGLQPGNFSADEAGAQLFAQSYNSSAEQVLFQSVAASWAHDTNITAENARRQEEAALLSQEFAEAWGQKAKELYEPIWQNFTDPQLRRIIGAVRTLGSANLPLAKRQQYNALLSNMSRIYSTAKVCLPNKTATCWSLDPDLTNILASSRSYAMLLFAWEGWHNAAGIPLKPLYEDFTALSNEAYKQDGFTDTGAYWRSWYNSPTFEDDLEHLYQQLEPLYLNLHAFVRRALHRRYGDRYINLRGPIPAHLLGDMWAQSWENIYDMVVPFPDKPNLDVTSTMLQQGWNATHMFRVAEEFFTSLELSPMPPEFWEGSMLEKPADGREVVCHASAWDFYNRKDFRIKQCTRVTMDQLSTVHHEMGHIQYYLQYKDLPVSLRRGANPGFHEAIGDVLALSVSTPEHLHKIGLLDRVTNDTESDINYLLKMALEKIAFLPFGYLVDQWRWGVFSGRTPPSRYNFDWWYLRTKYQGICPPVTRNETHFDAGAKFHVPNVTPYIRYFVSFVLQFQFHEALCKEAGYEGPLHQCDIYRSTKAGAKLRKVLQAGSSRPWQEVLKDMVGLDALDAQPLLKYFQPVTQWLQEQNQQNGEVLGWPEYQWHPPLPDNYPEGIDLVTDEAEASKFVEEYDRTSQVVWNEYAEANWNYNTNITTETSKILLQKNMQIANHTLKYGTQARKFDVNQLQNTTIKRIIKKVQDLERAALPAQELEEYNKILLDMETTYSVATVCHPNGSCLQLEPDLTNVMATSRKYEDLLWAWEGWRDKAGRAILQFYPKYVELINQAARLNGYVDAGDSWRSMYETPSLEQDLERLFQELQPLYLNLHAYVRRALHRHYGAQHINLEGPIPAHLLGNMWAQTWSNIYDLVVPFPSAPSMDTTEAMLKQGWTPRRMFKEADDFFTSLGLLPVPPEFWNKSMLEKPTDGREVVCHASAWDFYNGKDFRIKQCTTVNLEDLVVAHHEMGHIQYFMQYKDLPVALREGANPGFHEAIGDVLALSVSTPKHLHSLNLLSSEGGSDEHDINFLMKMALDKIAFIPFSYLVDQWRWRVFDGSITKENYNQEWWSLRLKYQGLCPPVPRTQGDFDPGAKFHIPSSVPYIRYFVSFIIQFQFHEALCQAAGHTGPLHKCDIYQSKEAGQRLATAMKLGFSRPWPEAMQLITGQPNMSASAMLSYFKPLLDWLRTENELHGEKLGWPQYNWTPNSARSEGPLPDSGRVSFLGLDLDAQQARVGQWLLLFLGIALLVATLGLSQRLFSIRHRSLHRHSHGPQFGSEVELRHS
# Sequence of NEP (neutral endopeptidase) (P08473 whole entry, species assumed): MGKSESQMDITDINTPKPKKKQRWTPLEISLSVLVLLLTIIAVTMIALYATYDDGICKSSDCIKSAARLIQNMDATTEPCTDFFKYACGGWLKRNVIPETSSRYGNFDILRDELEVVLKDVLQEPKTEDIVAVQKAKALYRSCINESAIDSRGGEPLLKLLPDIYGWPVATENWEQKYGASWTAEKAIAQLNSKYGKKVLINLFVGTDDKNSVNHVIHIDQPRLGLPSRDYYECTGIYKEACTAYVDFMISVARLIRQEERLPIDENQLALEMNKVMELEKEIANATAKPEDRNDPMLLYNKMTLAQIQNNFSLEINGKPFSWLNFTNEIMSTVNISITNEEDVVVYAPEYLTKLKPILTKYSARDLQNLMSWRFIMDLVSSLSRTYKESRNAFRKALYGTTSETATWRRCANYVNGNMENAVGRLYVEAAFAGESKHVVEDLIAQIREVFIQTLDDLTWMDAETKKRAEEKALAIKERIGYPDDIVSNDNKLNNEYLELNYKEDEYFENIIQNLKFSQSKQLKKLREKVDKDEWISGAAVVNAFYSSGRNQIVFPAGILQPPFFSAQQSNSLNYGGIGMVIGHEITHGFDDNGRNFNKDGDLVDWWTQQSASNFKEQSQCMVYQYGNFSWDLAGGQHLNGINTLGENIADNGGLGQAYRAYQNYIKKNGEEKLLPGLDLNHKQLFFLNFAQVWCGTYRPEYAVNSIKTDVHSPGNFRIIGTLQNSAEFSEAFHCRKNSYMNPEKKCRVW
SMILES,IC50 [1] [nM],IC50 [2] [nM]
CCOC(=O)[C@H](Cc1ccc(O)cc1)NC(=O)[C@H](Cc1ccccc1)N[C@@H](CNC(=O)[C@H](CCCCN)NS(C)(=O)=O)C(=O)O,40,650
CC(C)[C@H](N[C@@H](CNC(=O)[C@H](CCCCN)NS(C)(=O)=O)C(=O)O)C(=O)N[C@@H](Cc1ccc(O)cc1)C(=O)O,7,50
O=C(CCCCCNC(=O)OCc1ccccc1)NC[C@H](N[C@@H](Cc1ccccc1)C(=O)N[C@@H](Cc1ccc(O)cc1)C(=O)O)C(=O)O [drawing 100: R1=H; R5=OH; R6=OH; Z=CbzNH],30,65
CCC[C@H](N[C@@H](CNC(=O)[C@H](CCCCNC(=O)OCc1ccccc1)NS(C)(=O)=O)C(=O)O)C(=O)N[C@@H](Cc1cccc(NS(C)(=O)=O)c1)C(=O)OCC,70,400
CCOC(=O)[C@H](Cc1ccc(O)cc1)NC(=O)[C@H](Cc1ccccc1)N[C@@H](CNC(=O)[C@H](CCCCNC(=O)OCc1ccccc1)NS(C)(=O)=O)C(=O)O,38,50
CCC[C@H](N[C@@H](CNC(=O)[C@H](CCCCN)NS(C)(=O)=O)C(=O)O)C(=O)N[C@@H](Cc1ccc(O)cc1)C(=O)OC,270,–
"CS(=O)(=O)N[C@@H](CCCCN)C(=O)NC[C@H](NC(C(=O)N[C@@H](Cc1ccc(O)cc1)C(=O)O)C1CC1)C(=O)O (single isomer, unassigned) [listing 1 of 2 here]",40,15
CS(=O)(=O)Nc1cccc(C[C@H](NC(=O)[C@H](Cc2ccccc2)N[C@@H](CNC(=O)[C@H](CCCCN)NS(C)(=O)=O)C(=O)O)C(=O)O)c1,25,15
CC(C)[C@H](N[C@@H](CNC(=O)[C@H](CCCCNC(=O)OCc1ccccc1)NS(C)(=O)=O)C(=O)O)C(=O)N[C@@H](Cc1ccc(O)cc1)C(=O)O,2,30
COC(=O)[C@H](CNC(=O)[C@H](CCCCN)NS(C)(=O)=O)N[C@H](C(=O)N[C@@H](Cc1ccc(O)cc1)C(=O)O)C(C)C,> 300,> 1000
CS(=O)(=O)N[C@@H](CCCCNC(=O)OCc1ccccc1)C(=O)NC[C@H](N[C@@H](Cc1ccccc1)C(=O)N[C@@H](Cc1ccc(O)cc1)C(=O)O)C(=O)O,18,9
CS(=O)(=O)N[C@@H](CCCCN)C(=O)NC[C@H](N[C@@H](Cc1ccccc1)C(=O)N[C@@H](Cc1ccc(O)cc1)C(=O)O)C(=O)O [drawing 100: R1=CH3SO2NH; R5=OH; R6=OH; Z=NH2],35,50
CCOC(=O)[C@H](CNC(=O)[C@H](CCCCN)NS(C)(=O)=O)N[C@@H](Cc1ccccc1)C(=O)N[C@@H](Cc1ccc(O)cc1)C(=O)O,300,> 1000
CS(=O)(=O)N[C@@H](CCCCN)C(=O)NC[C@H](N[C@@H](Cc1ccccc1)C(=O)N[C@@H](Cc1ccc(O)cc1)C(=O)OCCc1ccccc1)C(=O)O,68,175
CS(=O)(=O)N[C@@H](CCCCNC(=O)OCc1ccccc1)C(=O)NC[C@H](N[C@H](C(=O)N[C@@H](Cc1ccc(O)cc1)C(=O)O)C1CCCCC1)C(=O)O,> 300,250
CCC[C@H](N[C@@H](CNC(=O)[C@H](CCCCNC(=O)OCc1ccccc1)NS(C)(=O)=O)C(=O)O)C(=O)N[C@@H](Cc1ccc(O)cc1)C(=O)OC,78,300
CS(=O)(=O)N[C@@H](CCCCN)C(=O)NC[C@H](NC1(C(=O)N[C@@H](Cc2ccc(O)cc2)C(=O)O)CCCC1)C(=O)O,35,45
NCCCCCC(=O)NC[C@H](N[C@@H](Cc1ccccc1)C(=O)N[C@@H](Cc1ccc(O)cc1)C(=O)O)C(=O)O [drawing 100: R1=H; R5=OH; R6=OH; Z=NH2],16,60
CS(=O)(=O)N[C@@H](CCCCN)C(=O)NC[C@H](NC1(C(=O)N[C@@H](Cc2ccc(O)cc2)C(=O)O)CCCCC1)C(=O)O,190,–
CCC[C@H](N[C@@H](CNC(=O)[C@H](CCCCNC(=O)OCc1ccccc1)NS(C)(=O)=O)C(=O)O)C(=O)N[C@@H](Cc1ccc(O)cc1)C(=O)O,2,15
CS(=O)(=O)N[C@@H](CCCCN)C(=O)NC[C@H](NC1(C(=O)N[C@@H](Cc2ccc(O)cc2)C(=O)O)CC1)C(=O)O,> 300,150
CS(=O)(=O)N[C@@H](CCCCN)C(=O)NC[C@H](N[C@H](C(=O)N[C@@H](Cc1ccc(O)cc1)C(=O)O)C1CCCCC1)C(=O)O,> 300,121
CS(=O)(=O)N[C@@H](CCCCN)C(=O)NC[C@H](NC1(C(=O)N[C@@H](Cc2ccc(O)cc2)C(=O)O)CCC1)C(=O)O,42,–
CCC[C@H](N[C@@H](CNC(=O)[C@H](CCCCN)NS(C)(=O)=O)C(=O)O)C(=O)N[C@@H](Cc1cccc(NS(C)(=O)=O)c1)C(=O)O,200,40
CCOC(=O)[C@H](CNC(=O)[C@H](CCCCNC(=O)OCc1ccccc1)NS(C)(=O)=O)N[C@@H](Cc1ccccc1)C(=O)N[C@@H](Cc1ccc(O)cc1)C(=O)O,> 300,> 1000
CCC[C@H](N[C@@H](CNC(=O)[C@H](CCCCN)NS(C)(=O)=O)C(=O)O)C(=O)N[C@@H](Cc1ccc(O)cc1)C(=O)O,6,30
CCN=C(NCC)NCCCC[C@H](NS(C)(=O)=O)C(=O)NC[C@H](N[C@@H](Cc1ccccc1)C(=O)N[C@@H](Cc1ccc(O)cc1)C(=O)O)C(=O)O,95,8
COC(=O)[C@H](CNC(=O)[C@H](CCCCNC(=O)OCc1ccccc1)NS(C)(=O)=O)N[C@H](C(=O)N[C@@H](Cc1ccc(O)cc1)C(=O)O)C(C)C,240,> 1000
"CS(=O)(=O)N[C@@H](CCCCN)C(=O)NC[C@H](NC(C(=O)N[C@@H](Cc1ccc(O)cc1)C(=O)O)C1CC1)C(=O)O (single isomer, unassigned) [listing 2 of 2 here]",> 300,300
